Assay results published in PMC9959518, “Influence of the Drug Position on Bioactivity in Angiopep-2—Daunomycin Conjugates” (International Journal of Molecular Sciences, 2023).

Experiments:
[1] = tested on: U87 human glioblastoma cells; format: cell-based; conditions: MTT test; for IC50: 0.05–50 µM, treated 24 h (method: overnight), washed, further 48 h (method: 72 h) at 37 °C, two independent experiments with four parallel measurements
Experimental: The in vitro cytostatic effect of the synthesized peptide (1) and daunomycin-peptide conjugates (2–8) was investigated on U87 human glioblastoma cells. The cells were treated with the peptide and conjugates at different concentrations (0.05–50 μM) for 24 h, and after a washing step, the cells were incubated for another […] at 37 °C. The cytostatic effect of the compounds was determined using the MTT test.
U87 human glioblastoma cell line was cultured in DMEM supplemented with 10% FBS, 2 mM L-glutamine, penicillin–streptomycin antibiotic mixture (50 IU/mL and 50 μg/mL, respectively), 1 mM sodium pyruvate, and 1% non-essential amino acid mixture. The cell culture was maintained at 37 °C in a humidified atmosphere with 5% CO2. The U87 cell line was a generous gift of Dr. József Tóvári (Department of Experimental Pharmacology, National Institute of Oncology, Budapest, Hungary).
For determining the cytostatic effect of the conjugates, U87 cells were grown to confluency and then divided into 96-well tissue culture plates with an initial cell number of 5.0 × 10^3 cells/well. After 24 h incubation at 37 °C, the cells were treated with the compounds overnight in the concentration range of 0.05–50 μM in 200 μL final volume containing 1.0 v/v% DMSO, whereas control cells were treated only with serum-free medium or with 1.0 v/v% DMSO at the same conditions. After the incubation, cells were washed twice with serum-free medium, then the cells were cultured for an additional 72 h in 10% serum-containing medium at 37 °C. Following that, MTT solution (at c = 0.37 mg/mL final concentration) was added to each well. The respiratory chain [32] and other electron transport systems reduced MTT and thereby formed non-water-soluble violet formazan crystals within the cells. The amount of these crystals can be determined by spectrophotometry and serves as an estimate for the number of mitochondria in addition to the number of living cells in the well [35]. After 3 h of incubation with MTT, the cells were centrifuged for 5 min at 2000 rpm and the supernatant was removed. The obtained formazan crystals were dissolved in DMSO (100 µL), and the optical density (OD) of the samples was measured at λ = 540 nm and 620 nm, respectively, using ELISA Reader (iEMS Reader, Labsystems, Finland). The OD620 values were subtracted from the OD540 values. The percent of cytostasis was calculated with the following equation:(1) Cytostatic effect (%)=1−ODtreated/ODcontrol×100 where the ODtreated and ODcontrol values correspond to the optical densities of the treated and the control wells, respectively. In each case, two independent experiments were carried out with four parallel measurements. Cytostasis was plotted as a function of concentration, and the half-maximal inhibitory concentration was calculated based on a sigmoid curve fitted on the data points using Microcal™ Origin 2018 software. IC50 represents the concentration of a compound that is required for 50% inhibition, expressed in micromolar units.

[2] = Degradation in rat liver lysosomal homogenate followed by HPLC-MS; format: in vitro ADME
Experimental: The conjugates were treated with lysosomal homogenate for 5 min, 1 h, 6 h, 24 h, and 72 h, and the degradation was followed by HPLC-MS. Control studies investigating conjugates in buffer (without lysosomal homogenate) were also performed, and for these, all conjugates were stable. […] At 6 h, it was the main drug-containing metabolite, and at 72 h, only this Dau-containing fragment could be detected. This time-dependent pattern was also observed in the case of conjugate 2, where Dau was attached to the side chain of Lys in position 15, and the formed smallest metabolite was H-Lys(Dau=Aoa)-OH. […] It is likely that, in this case, a large steric hindrance occurred, and the enzymes were not able to access the peptide bonds around ^10Lys. This observation might explain the discrepancy between the efficient cellular uptake and the lower anticancer activity of this conjugate.
A stock solution with a concentration of 2.5 μg/μL was prepared from the conjugates in distilled water, and this was diluted 100× with 0.2 M sodium acetate buffer (pH 5.03). The rat liver lysosomal homogenate (16.6 μg/μL) was diluted 20× with the same buffer, and then the two solutions were mixed in a 1:1 (protein:peptide, m/m) ratio. In each case, control measurements were also performed, in which buffer was added to the conjugates instead of the lysosomal homogenate. The solutions were stirred at 600 rpm at 37 °C in a thermostat (ThermoMixer, Eppendorf AG, Hamburg, Germany), and after 5 min, 1 h, 6 h, 24 h, and 72 h, 50 μL samples were taken. Each reaction was quenched with 5 μL formic acid and the samples were stored frozen until analysis.
The HPLC-MS analysis of the samples was performed with a Dionex 3000 HPLC-Q Exactive Focus hybrid quadrupole-orbitrap mass spectrometer (Thermo Fisher Scientific, Bremen, Germany). For separation, a Supelco Ascentis C18 column (3 μm, 100 Å, 150 × 2.1 mm; Merck, Darmstadt, Germany) and gradient elution (0 min 2% B, 1 min 2% B, 17 min 90% B; A eluent: 0.1% formic acid/distilled water, eluent B: 0.1% formic acid/acetonitrile + distilled water (80:20, v/v%), flow rate 0.2 mL/min, 40 °C) was used, and high-resolution mass spectra were recorded in the range of 200–1800 m/z. The data were analyzed using the Xcalibur program (Thermo Fisher Scientific).

Structure (SMILES)	IC50 [1] [µM]	further results
COc1cccc2c1C(=O)c1c(O)c3c(c(O)c1C2=O)C[C@@](O)(C(C)=NOCC(=O)NCCCC[C@H](NC(=O)[C@H](Cc1ccccc1)NC(=O)[C@H](CC(N)=O)NC(=O)[C@H](CC(N)=O)NC(=O)[C@H](CCCNC(=N)N)NC(=O)[C@H](CCCCN)NC(=O)CNC(=O)[C@H](CCCNC(=N)N)NC(=O)[C@H](CO)NC(=O)CNC(=O)CNC(=O)[C@H](Cc1ccc(O)cc1)NC(=O)[C@H](Cc1ccccc1)NC(=O)[C@H](Cc1ccccc1)NC(=O)[C@@H](NC(=O)CON=C(C)[C@]1(O)Cc2c(O)c4c(c(O)c2[C@@H](O[C@H]2C[C@H](N)[C@H](O)[C@H](C)O2)C1)C(=O)c1c(OC)cccc1C4=O)[C@@H](C)O)C(=O)N[C@H](C(=O)N[C@@H](CCC(=O)O)C(=O)N[C@@H](CCC(=O)O)C(=O)N[C@@H](Cc1ccc(O)cc1)C(=O)O)[C@@H](C)O)C[C@@H]3O[C@H]1C[C@H](N)[C@H](O)[C@H](C)O1 [compound 5, Dau=Aoa-TFFYGGSRGKRNNFK(Dau=Aoa)TEEY-OH]	32.3 ± 8.1	–
C[C@@H](O)[C@H](N)C(=O)N[C@@H](Cc1ccccc1)C(=O)N[C@@H](Cc1ccccc1)C(=O)N[C@@H](Cc1ccc(O)cc1)C(=O)NCC(=O)NCC(=O)N[C@@H](CO)C(=O)N[C@@H](CCCNC(=N)N)C(=O)NCC(=O)N[C@@H](CCCCN)C(=O)N[C@@H](CCCNC(=N)N)C(=O)N[C@@H](CC(N)=O)C(=O)N[C@@H](CC(N)=O)C(=O)N[C@@H](Cc1ccccc1)C(=O)N[C@@H](CCCCN)C(=O)N[C@H](C(=O)N[C@@H](CCC(=O)O)C(=O)N[C@@H](CCC(=O)O)C(=O)N[C@@H](Cc1ccc(O)cc1)C(=O)O)[C@@H](C)O [compound 1, H-TFFYGGSRGKRNNFKTEEY-OH, reference compound]	> 50	in vitro cytostatic effect (in words) ([1]; up to 50 µM): did not show any effect
COc1cccc2c1C(=O)c1c(O)c3c(c(O)c1C2=O)C[C@@](O)(C(C)=NOCC(=O)NCCCC[C@H](NC(=O)CNC(=O)[C@H](CCCNC(=N)N)NC(=O)[C@H](CO)NC(=O)CNC(=O)CNC(=O)[C@H](Cc1ccc(O)cc1)NC(=O)[C@H](Cc1ccccc1)NC(=O)[C@H](Cc1ccccc1)NC(=O)[C@@H](NC(=O)CON=C(C)[C@]1(O)Cc2c(O)c4c(c(O)c2[C@@H](O[C@H]2C[C@H](N)[C@H](O)[C@H](C)O2)C1)C(=O)c1c(OC)cccc1C4=O)[C@@H](C)O)C(=O)N[C@@H](CCCNC(=N)N)C(=O)N[C@@H](CC(N)=O)C(=O)N[C@@H](CC(N)=O)C(=O)N[C@@H](Cc1ccccc1)C(=O)N[C@@H](CCCCNC(=O)CON=C(C)[C@]1(O)Cc2c(O)c4c(c(O)c2[C@@H](O[C@H]2C[C@H](N)[C@H](O)[C@H](C)O2)C1)C(=O)c1c(OC)cccc1C4=O)C(=O)N[C@H](C(=O)N[C@@H](CCC(=O)O)C(=O)N[C@@H](CCC(=O)O)C(=O)N[C@@H](Cc1ccc(O)cc1)C(=O)O)[C@@H](C)O)C[C@@H]3O[C@H]1C[C@H](N)[C@H](O)[C@H](C)O1 [compound 8, Dau=Aoa-TFFYGGSRGK(Dau=Aoa)RNNFK(Dau=Aoa)TEEY-OH]	23.6 ± 6.3	–
COc1cccc2c1C(=O)c1c(O)c3c(c(O)c1C2=O)C[C@@](O)(C(C)=NOCC(=O)N[C@H](C(=O)N[C@@H](C)C(=O)NCC(=O)NCC(=O)NCCCC[C@H](NC(=O)CNC(=O)[C@H](CCCNC(=N)N)NC(=O)[C@H](CO)NC(=O)CNC(=O)CNC(=O)[C@H](Cc1ccc(O)cc1)NC(=O)[C@H](Cc1ccccc1)NC(=O)[C@H](Cc1ccccc1)NC(=O)[C@@H](N)[C@@H](C)O)C(=O)N[C@@H](CCCNC(=N)N)C(=O)N[C@@H](CC(N)=O)C(=O)N[C@@H](CC(N)=O)C(=O)N[C@@H](Cc1ccccc1)C(=O)N[C@@H](CCCCN)C(=O)N[C@H](C(=O)N[C@@H](CCC(=O)O)C(=O)N[C@@H](CCC(=O)O)C(=O)N[C@@H](Cc1ccc(O)cc1)C(=O)O)[C@@H](C)O)C(C)C)C[C@@H]3O[C@H]1C[C@H](N)[C@H](O)[C@H](C)O1 [compound 11, H-TFFYGGSRGK(Dau=Aoa-VAGG)RNNFKTEEY-OH]	20.2 ± 3	time of appearance of the Dau=Aoa-Val-Ala-OH fragment ([2]; pH 5.03, 37 °C): 1 h; amount of Dau=Aoa-Val-OH detected after 6 h ([2]; pH 5.03, 37 °C, 6 h): high amounts
COc1cccc2c1C(=O)c1c(O)c3c(c(O)c1C2=O)C[C@@](O)(C(C)=NOCC(=O)NCCCC[C@H](NC(=O)[C@H](Cc1ccccc1)NC(=O)[C@H](CC(N)=O)NC(=O)[C@H](CC(N)=O)NC(=O)[C@H](CCCNC(=N)N)NC(=O)[C@H](CCCCN)NC(=O)CNC(=O)[C@H](CCCNC(=N)N)NC(=O)[C@H](CO)NC(=O)CNC(=O)CNC(=O)[C@H](Cc1ccc(O)cc1)NC(=O)[C@H](Cc1ccccc1)NC(=O)[C@H](Cc1ccccc1)NC(=O)[C@@H](N)[C@@H](C)O)C(=O)N[C@H](C(=O)N[C@@H](CCC(=O)O)C(=O)N[C@@H](CCC(=O)O)C(=O)N[C@@H](Cc1ccc(O)cc1)C(=O)O)[C@@H](C)O)C[C@@H]3O[C@H]1C[C@H](N)[C@H](O)[C@H](C)O1 [compound 2, H-TFFYGGSRGKRNNFK(Dau=Aoa)TEEY-OH]	30.2 ± 6.4	–
COc1cccc2c1C(=O)c1c(O)c3c(c(O)c1C2=O)C[C@@](O)(C(C)=NOCC(=O)N[C@H](C(=O)N[C@@H](Cc1ccccc1)C(=O)N[C@@H](Cc1ccccc1)C(=O)N[C@@H](Cc1ccc(O)cc1)C(=O)NCC(=O)NCC(=O)N[C@@H](CO)C(=O)N[C@@H](CCCNC(=N)N)C(=O)NCC(=O)N[C@@H](CCCCN)C(=O)N[C@@H](CCCNC(=N)N)C(=O)N[C@@H](CC(N)=O)C(=O)N[C@@H](CC(N)=O)C(=O)N[C@@H](Cc1ccccc1)C(=O)N[C@@H](CCCCN)C(=O)N[C@H](C(=O)N[C@@H](CCC(=O)O)C(=O)N[C@@H](CCC(=O)O)C(=O)N[C@@H](Cc1ccc(O)cc1)C(=O)O)[C@@H](C)O)[C@@H](C)O)C[C@@H]3O[C@H]1C[C@H](N)[C@H](O)[C@H](C)O1 [compound 3, Dau=Aoa-TFFYGGSRGKRNNFKTEEY-OH]	10.9 ± 2.8	time of appearance of the Dau=Aoa-Thr-OH fragment ([2]; 1:1 protein:peptide m/m, 0.2 M sodium acetate pH 5.03, 37 °C): ≤ 1 h
COc1cccc2c1C(=O)c1c(O)c3c(c(O)c1C2=O)C[C@@](O)(C(C)=NOCC(=O)NCCCC[C@H](NC(=O)CNC(=O)[C@H](CCCNC(=N)N)NC(=O)[C@H](CO)NC(=O)CNC(=O)CNC(=O)[C@H](Cc1ccc(O)cc1)NC(=O)[C@H](Cc1ccccc1)NC(=O)[C@H](Cc1ccccc1)NC(=O)[C@@H](N)[C@@H](C)O)C(=O)N[C@@H](CCCNC(=N)N)C(=O)N[C@@H](CC(N)=O)C(=O)N[C@@H](CC(N)=O)C(=O)N[C@@H](Cc1ccccc1)C(=O)N[C@@H](CCCCNC(=O)CON=C(C)[C@]1(O)Cc2c(O)c4c(c(O)c2[C@@H](O[C@H]2C[C@H](N)[C@H](O)[C@H](C)O2)C1)C(=O)c1c(OC)cccc1C4=O)C(=O)N[C@H](C(=O)N[C@@H](CCC(=O)O)C(=O)N[C@@H](CCC(=O)O)C(=O)N[C@@H](Cc1ccc(O)cc1)C(=O)O)[C@@H](C)O)C[C@@H]3O[C@H]1C[C@H](N)[C@H](O)[C@H](C)O1 [compound 6, H-TFFYGGSRGK(Dau=Aoa)RNNFK(Dau=Aoa)TEEY-OH]	21.6 ± 5.4	–
